IC50 data for 56 compounds are collected here from ChEMBL document CHEMBL6078659, “Comprehensive Insights into the Development of Antitoxoplasmosis Drugs: Current Advances, Obstacles, and Future Perspectives” (J Med Chem, 2024).

The term IC50 denotes the midpoint of a concentration-inhibition curve.

Starred links: 1 amine or outer side, 2 acyl side, 3 side chain; linkers in the order of their positions; H or OH if unused. Non-standard residues stand in square brackets, D forms with d. Residues, ends and D or L forms follow the SMILES beside them. X1 = CC[C@@H](C)[C@@H](O[*:1])C(=O)[*:2]; NMeVal(β-OH) = CN[C@H](C(=O)O)C(C)(C)O; NMeF = CN[C@@H](Cc1ccccc1)C(=O)O; NMeV = CN[C@H](C(=O)O)C(C)C

The subject of one experiment is Toxoplasma gondii. The experiment can be described thus: Antiparasitic activity against Toxoplasma gondii RH. Format: functional, organism-based.
For `CC1(C)CC[C@]2(C(=O)O)CC[C@]3(C)C(=CC[C@@H]4[C@@]5(C)CC[C@H](O)[C@@](C)(CO)[C@@H]5CC[C@]43C)[C@@H]2C1` [HEDERAGENIN], the IC50 turned out to be 548 µM. Turning to `C=C(C)[C@@H]1CC[C@]2(CO)CC[C@]3(C)[C@H](CC[C@@H]4[C@@]5(C)CCC(=O)C(C)(C)[C@@H]5CC[C@]43C)[C@@H]12` [BETULONE], the IC50 was 2.7 µM.

Regarding `COc1cc(OC)c2ccc(-c3ccc(O)cc3)[o+]c2c1`, the IC50 turned out to be 0.53 µg/mL. For `COc1cc(-c2cc(=O)c3c(O)cc(O)cc3o2)cc(OC)c1O` [TRICIN], the IC50 was found to be 12.9 µg/mL. The compound `COc1cc(O)c2ccc(-c3ccc(O)cc3)[o+]c2c1` displayed a 50% inhibitory concentration (IC50) of 1.48 µg/mL.

`Oc1cc(O)c2ccc(-c3ccc(O)c(O)c3)[o+]c2c1` [LUTEOLINIDIN] returned an IC50 of 0.66 µg/mL. On the same count and under the same terms, next, `C=CCc1cc(OC)c(O[C@@H](C)[C@H](O)c2ccc(O)c(OC)c2)c(OC)c1`: 32.4 µg/mL. On the same count and under the same terms, next, `C[C@H]1[C@H](C)CC[C@]2(C(=O)Nc3nnn[nH]3)CC[C@]3(C)C(=CC[C@@H]4[C@@]5(C)CCC(=O)C(C)(C)[C@@H]5CC[C@]43C)[C@H]12` (single isomer, unassigned): 219 µM. On the same count and under the same terms, next, `C/C=C/c1cc(OC)c2c(c1)[C@@H](C)[C@H](c1ccc3c(c1)OCO3)O2` [LICARINE B]: 14 µg/mL.

As to `Oc1ccc(-c2ccc3c(O)cc(O)cc3[o+]2)cc1`, the IC50 was determined as 1.08 µg/mL.

The next experiment has as its system Toxoplasma gondii. The experiment can be described thus: Antiparasitic activity against Toxoplasma gondii. In kind it is functional, organism-based.
In turn, `CCCCCCCCCCCCCCCCC1(C)SC(=O)C(Cc2ccccc2)=C1O` (configuration not stated) showed an IC50 of 6000 nM. Compound `COc1cc(/C=C/C(=O)C(=Cc2ccc(F)c(F)c2)C(=O)/C=C/c2ccc(O)c(OC)c2)ccc1O` had an IC50 of 800 nM. On to `CCCCCCCCCCCCCCCCC1(C)SC(=O)C(CCC)=C1O` (configuration not stated), for which the IC50 turned out to be 2000 nM. The same measure, in the same setting: as for `CC(C)=CCC/C(C)=C/CO` [GERANIOL], the figure is 4 µg/mL; as for `Oc1cc(Cl)ccc1Oc1ccc(Cl)cc1Cl` [TRICLOSAN], 3000 nM; as for `COc1cc(C=O)ccc1O` [VANILLIN], 645 µg/mL. On the same count and under the same terms, as for `COc1cc(C2c3cc(c(O)cc3O)C(c3ccc(O)c(OC)c3)c3cc(c(O)cc3O)C(c3ccc(O)c(OC)c3)c3cc(c(O)cc3O)C(c3ccc(O)c(OC)c3)c3cc2c(O)cc3O)ccc1O` (configuration not stated), the figure is more than 2000 µg/mL. Turning to `COc1cc(/C=C/C(=O)CC(=O)/C=C/c2ccc(O)c(OC)c2)ccc1O` [CURCUMIN], the IC50 is 38300 nM. As to `COc1ccc(/C=C/C(=O)C(=Cc2ccc(F)c(F)c2)C(=O)/C=C/c2ccc(OC)c(OC)c2)cc1OC`, the IC50 is 330 nM. In the case of `Oc1ccc(/C=C/c2cc(O)cc(O)c2)cc1` [RESVERATROL], the 50% inhibitory concentration (IC50) worked out at 54600 nM.

Another experiment deals with T1, Bifunctional dihydrofolate reductase-thymidylate synthase (Toxoplasma gondii, UniProt Q07422).
T1 sequence (Q07422 whole entry): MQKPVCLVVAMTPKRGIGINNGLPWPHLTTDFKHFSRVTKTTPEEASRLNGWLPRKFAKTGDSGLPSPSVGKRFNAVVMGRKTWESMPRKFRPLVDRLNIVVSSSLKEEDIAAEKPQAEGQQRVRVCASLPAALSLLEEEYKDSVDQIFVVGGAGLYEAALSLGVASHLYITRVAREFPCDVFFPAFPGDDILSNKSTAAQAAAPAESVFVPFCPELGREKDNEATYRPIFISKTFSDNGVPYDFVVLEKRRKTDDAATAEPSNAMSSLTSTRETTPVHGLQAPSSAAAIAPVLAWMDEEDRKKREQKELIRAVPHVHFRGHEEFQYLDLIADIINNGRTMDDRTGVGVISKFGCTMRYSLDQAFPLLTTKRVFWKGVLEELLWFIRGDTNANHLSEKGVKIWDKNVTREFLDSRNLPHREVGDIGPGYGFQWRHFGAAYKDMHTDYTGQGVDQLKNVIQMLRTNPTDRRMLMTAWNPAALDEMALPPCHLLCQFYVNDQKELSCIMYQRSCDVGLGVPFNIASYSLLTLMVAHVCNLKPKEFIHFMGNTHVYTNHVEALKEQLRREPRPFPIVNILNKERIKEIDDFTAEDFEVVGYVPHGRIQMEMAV
The experiment can be described thus: Inhibition of Toxoplasma gondii Dihydrofolate reductase.
The compound `CC1(C)N=C(N)N=C(N)N1OCCCOc1ccc(OC(F)(F)F)cc1Cl` displayed an IC50 of 20 nM. `O=C(c1cc(Br)c(F)[nH]1)c1cc(Cl)cc(Cl)c1O` showed an IC50 of 170 nM. Regarding `CC[C@@H](C)[C@H]1OC(=O)[C@H](C(C)(C)O)N(C)C(=O)[C@H](CC(C)C)NC(=O)[C@H](C(C)C)N(C)C(=O)[C@H]([C@@H](C)CC)NC(=O)[C@@H]2CCCN2C(=O)[C@H](Cc2ccccc2)N(C)C(=O)[C@H](Cc2ccccc2)NC(=O)[C@H](C(C)C)N(C)C1=O` [BASIFUNGIN] (cyclo(F[NMeF]PI[NMeV]L[NMeVal(β-OH)][X1][NMeV])), the IC50 is 300 nM. Regarding `Cc1ccc(CSc2ncnc3c2ncn3[C@@H]2C[C@H](CO)[C@@H](O)[C@H]2O)cc1`, the IC50 was found to be 11.9 nM. `O=C(c1ccccc1O)c1[nH]c(Cl)c(Cl)c1-n1c(C(=O)c2ccc(Cl)cc2O)cc(Cl)c1Cl` showed an IC50 of 160 nM. The same measure, in the same setting: as for `O=c1cc(-c2cccc3c2Sc2ccccc2S3)oc(N2CCOCC2)c1` [KU-55933], the figure is 2.15 nM; as for `O=C(c1ccccc1O)c1[nH]c(Cl)c(Cl)c1-n1c(C(=O)c2ccccc2O)cc(Cl)c1Cl`, 310 nM; as for `Cc1cc(C)c(O)c(C(=O)c2cc(Br)c(Br)[nH]2)c1`, 90 nM.

The test system of another experiment is Toxoplasma gondii. The experiment can be described thus: Antiparasitic activity against Toxoplasma gondii RH infected in human HFF cells. In kind it is functional, organism-based.
Compound `Cc1nc[nH]c1-c1nnc(Nc2ccc(I)cc2)s1` registered an IC50 of 4.76 µg/mL.

`C/C(=N\Nc1nc(-c2ccc([N+](=O)[O-])cc2)cs1)c1ccc(Nc2nc(N)nc(N)n2)cc1` displayed an IC50 of 14.9 µg/mL. Consider `O=C1C2=C(C(=O)c3ccccc31)[C@H]1Oc3ccc(Cl)cc3[C@H]1CO2`, for which the IC50 is less than 1000 nM. Regarding `C=CC(C)(O)CCC=C(C)C` (configuration not stated) [LINALOOL], the IC50 came to 4.48 µg/mL. In the case of `C[C@@H]1CC[C@H]2[C@@H](C)C(=O)O[C@@H]3O[C@@]4(C)CC[C@@H]1[C@]32OO4` [ARTEMISININ], the IC50 turned out to be 1700 nM.

As to `C=C(C)C1CC=C(C)CC1` (configuration not stated), half-maximal inhibition (IC50) was put at 241 µg/mL. Compound `CC1=C(c2nccs2)O[C@@H]2O[C@@]3(C)CC[C@H]4[C@H](C)CC[C@@H]1[C@@]24OO3` came in with an IC50 of 1000 nM. Compound `Cc1[nH]c2c(c(=O)c1-c1ccc(Oc3ccc(OC(F)(F)F)cc3)cc1)CCCC2` returned a 50% inhibitory concentration (IC50) of 0.12 nM. For `CC(C)CCCc1ccc2c(c1)C(=O)C=C(N1CCCC1)C2=O`, inhibition was half-maximal at 320 nM (IC50). Consider `CCCCCCCCCCCCc1c(C)c(=O)c2ccccc2n1O` [COMPOUND A], for which the concentration for half-maximal inhibition (IC50) was found to be 0.4 nM. `C=C(C)C1CC=C(C)C(=O)C1` (configuration not stated) [CARVONE] came in with an IC50 of 16.1 µg/mL. As for `CC(C)=CCC1=C(O)C(=O)c2ccccc2C1=O` [LAPACHOL], the IC50 was 0.4 µg/mL.

Turning to `CC1=CCC(C(C)(C)O)CC1` (configuration not stated), the IC50 was found to be 4.4 µg/mL. Still for that read-out and setting: as for `COC(=O)Cn1c(C(=O)NS(=O)(=O)C2=Cc3ccccc3C2)cc2cc(OC)ccc21`, the figure is 130 nM; as for `Cc1[nH]c2cc(F)cc(F)c2c(=O)c1-c1ccc(Oc2ccc(OC(F)(F)F)cc2)cc1`, 5 nM; as for `C/C=C/C1=C(O)C(=O)c2ccccc2C1=O`, 3010 nM. The compound `O=C1C2=C(C(=O)c3ccccc31)[C@H]1Oc3ccc(Br)cc3[C@H]1CO2` showed an IC50 of 2600 nM. For the compound `O=C1C2=C(C(=O)c3ccccc31)[C@H]1Oc3ccccc3[C@H]1CO2` [PTEROCARPANQUINONE], the IC50 was determined as 2500 nM. As to `Oc1ccccc1` [PHENOL], the IC50 was determined as 4.77 µg/mL. In turn, `CCCCCCCCCCCCc1c(C)n(O)c2ccccc2c1=O` showed an IC50 of 0.8 nM. Consider `COC(=O)C1C(C)=CCCC1(C)C` (configuration not stated), for which the IC50 turned out to be 242 µg/mL.

Turning to `CC(C)=CCC/C(C)=C\C=O`, the IC50 is 24 µg/mL.

In another experiment the test system is Toxoplasma gondii. The experiment can be described thus: Antiparasitic activity against Toxoplasma gondii assessed as parasitic growth inhibition. Format: functional, organism-based.
On to `COc1c(N2CCNC(C)C2)c(F)cc2c(=O)c(C(=O)O)cn(C3CC3)c12` (configuration not stated) [GATIFLOXACIN], for which the IC50 came to 4.1 µg/mL.

With `O=C1C2=C(C(=O)c3ccccc31)[C@H]1Oc3ccc(Cl)cc3[C@H]1CO2`, the half-maximal inhibitory concentration (IC50) was less than 10000 nM. On to `Cc1c(F)c(N2CCNC(C)C2)cc2c1c(=O)c(C(=O)O)cn2C1CC1` (configuration not stated) [GREPAFLOXACIN], for which the IC50 stood at 2.4 µg/mL.

Consider `CC(C)CCCc1ccc2c(c1)C(=O)C=C(N1CCCC1)C2=O`, for which the IC50 is 320 nM. With `CC(C)=CCC1=C(O)C(=O)c2ccccc2C1=O` [LAPACHOL], the half-maximal inhibitory concentration (IC50) was 4880 nM.

Turning to `O=C1C(O)=C([C@H]2CC[C@H](c3ccc(Cl)cc3)CC2)C(=O)c2ccccc21` [ATOVAQUONE], the IC50 turned out to be 70 nM. As to `C/C=C/C1=C(O)C(=O)c2ccccc2C1=O`, the IC50 stood at 3010 nM. Same read-out and setting: next, `COc1c(N2C[C@@H]3CCCN[C@@H]3C2)c(F)cc2c(=O)c(C(=O)O)cn(C3CC3)c12` [MOXIFLOXACIN]: 5.1 µg/mL; `O=C1C2=C(C(=O)c3ccccc31)[C@H]1Oc3ccc(Br)cc3[C@H]1CO2`: 2600 nM; `O=C(NNC(=S)Nc1ccc(F)cc1)c1cccs1`: 33200 nM. Turning to `O=C1C2=C(C(=O)c3ccccc31)[C@H]1Oc3ccccc3[C@H]1CO2` [PTEROCARPANQUINONE], the IC50 stood at 2500 nM. On the same count and under the same terms, as for `N[C@@H]1[C@H]2CN(c3nc4c(cc3F)c(=O)c(C(=O)O)cn4-c3ccc(F)cc3F)C[C@@H]12` [TROVAFLOXACIN], the figure is 0.4 µg/mL.
